According to US20220401429A1, “USE OF ANAMORELIN TO TREAT CANCER-RELATED FATIGUE” (Helsinn Healthcare SA, priority 2021, published 2022):

Assays:
Format in all cases: in vivo, human
[1] = tested on: patients with advanced cancer; experiment: FACIT-F fatigue subscale, single arm study of anamorelin (Example 1); conditions: for FACIT-F Fatigue Subscale, change, Mean (±SD): change from baseline, 100 mg oral daily + physical activity + nutritional counseling
Source text: This study was undertaken to isolate and evaluate anamorelin's effect on fatigue, energy expenditure, and other side effects of cancer in a cancer-stricken population, by including in the study population only those patients suffering significant levels of fatigue and inflammatory activity, excluding from the study population confounding factors such as depression and anemia, and controlling for a consistent level of nutrition and physical exercise.
(§1) In this single arm study, 38 patients were intended for treatment with anamorelin for 6 weeks with an optional extension phase of 6 more weeks based on tolerability and safety and patient willingness. Patients received anamorelin 100 mg tablets and physical activity for 6 weeks for the intervention phase. Patients took 1 tablet orally while fasting (at least 1 hour before a meal).
• diagnosis of advanced cancer (metastatic or recurrent incurable solid tumors excluding prostate cancer) • fatigue on FACIT-F subscale of ≤34 on a 0 to 52 scale [in which 52=no fatigue and 0=worst possible fatigue] • CRP ≥3 mg/L* in the absence of any other more likely cause of increased CRP like an infection or an autoimmune disorder • unintentional weight loss of from 2% to 15% at any time within the previous 12 months • No evidence of moderate to severe depression as determined by a HADS depression score of ≤13 • Hemoglobin level ≥9 g/dL
A primary objective of the study was to examine the effects of anamorelin and standardized physical activity and nutritional counseling on changes in the Functional Assessment of […] (FACIT-F) subscale score at Day 43±3 days compared to baseline in patients with advanced cancer receiving oral anamorelin 100 mg daily and standardized physical activity and nutritional counseling.
FACIT-F is a well-validated QOL instrument in cancer patients (Cella, Tulsky et al. 1993). The 13-item fatigue subscale is a patient-rated assessment of intensity of fatigue and its related symptoms on a scale of 0 to 4.

[2] = tested on: patients with advanced cancer; experiment: Edmonton Symptom Assessment Scale (ESAS), Example 1 study; conditions: change from baseline, 100 mg oral daily + physical activity + nutritional counseling
Description: as §1
(§2) Secondary objectives of the study were to examine the effects of anamorelin and standardized physical activity and nutritional counseling on Health-related quality of life and patient reported outcomes as measured by The Multidimensional Fatigue Symptom Inventory-Short Form[MFSI-SF], PROMIS-Fatigue, Hospital Anxiety Depression Scale (HADS), Edmonton Symptom Assessment Scale (ESAS), Functional Assessment of Cancer Therapy (FACT-G), and its Functional Assessment of Anorexia/Cachexia Treatment (FAACT) subscale in these patients.
The ESAS measures 10 common symptoms in the past 24 hours (pain, fatigue, nausea, depression, anxiety, drowsiness, shortness of breath, appetite, sleep, and feeling of well-being); This questionnaire has been found valid and reliable in cancer populations (Bruera, Kuehn et al. 1991).

[3] = tested on: patients with advanced cancer; experiment: Multidimensional Fatigue Symptom Inventory-Short Form (MFSI-SF), Example 1 study; conditions: change from baseline, 100 mg oral daily + physical activity + nutritional counseling
Description: as §1, §2
MFSI-SF consists of 30 items designed to assess the multidimensional nature of fatigue(Stein, Jacobsen et al. 2004). Ratings are summed to obtain scores for 5 subscales (general fatigue, physical fatigue, emotional fatigue, mental fatigue, and vigor).

SMILES: CN(C)N(C)C(=O)[C@@]1(Cc2ccccc2)CCCN(C(=O)[C@@H](Cc2c[nH]c3ccccc23)NC(=O)C(C)(C)N)C1 [anamorelin]
- FACIT-F increase from baseline, linear mixed model with time as categorical variable ([1]; 43-day measure): 4.89
- FACIT-F Fatigue Subscale, change, Mean (±SD) ([1]; Day 15 (N = 28)): 3.89 (±8.71),
- FACIT-F Fatigue Subscale, change, Mean (±SD) ([1]; Day 29 (N = 28)): 6.32 (±9.53),
- FACIT-F Fatigue Subscale, change, Mean (±SD) ([1]; Day 86 (N = 8)): 8.13 (±12.62),
- Effect size for improvement in CRF ([1]; this study, FACIT-F Day 43 (Cohen's D)): 0.37
- FACIT-F average increase over time, linear mixed model ([1]; time effect, FIG. 1): 0.11 units per day
- ESAS Appetite, change, Mean (±SD) ([2]; Day 15 (N = 28)): −0.43 (±3.06),
- ESAS-Fatigue, change, Mean (±SD) ([2]; Day 15 (N = 28)): −0.68 (±2.87),
- ESAS Appetite, change, Mean (±SD) ([2]; Day 29 (N = 28)): −1.04 (±3.19),
- ESAS-Fatigue, change, Mean (±SD) ([2]; Day 29 (N = 28)): −0.75 (±2.70),
- ESAS Appetite, change, Mean (±SD) ([2]; Day 43 (N = 28)): −0.56 (±3.07),
- ESAS-Fatigue, change, Mean (±SD) ([2]; Day 43 (N = 28)): −0.81 (±2.87),
- ESAS Appetite, change, Mean (±SD) ([2]; Day 86 (N = 8)): −0.13 (±3.09),
- ESAS-Fatigue, change, Mean (±SD) ([2]; Day 86 (N = 8)): −1.25 (±2.43),
- MFSI-SF Emotional fatigue, change, Mean (±SD) ([3]; Day 15 (N = 28)): −0.43 (±2.20),
- MFSI-SF General fatigue, change, Mean (±SD) ([3]; Day 15 (N = 28)): −2.25 (±4.53),
- MFSI-SF Mental fatigue, change, Mean (±SD) ([3]; Day 15 (N = 28)): −0.93 (±2.57),
- MFSI-SF Physical fatigue, change, Mean (±SD) ([3]; Day 15 (N = 28)): −0.71 (±3.69),
- MFSI-SF Total, change, Mean (±SD) ([3]; Day 15 (N = 28)): −4.79 (±9.59),
- MFSI-SF Vigor, change, Mean (±SD) ([3]; Day 15 (N = 28)): 0.46 (±2.89),
- MFSI-SF Emotional fatigue, change, Mean (±SD) ([3]; Day 29 (N = 28)): 0.14 (±3.15),
- MFSI-SF General fatigue, change, Mean (±SD) ([3]; Day 29 (N = 28)): −4.18 (±5.74),
- MFSI-SF Mental fatigue, change, Mean (±SD) ([3]; Day 29 (N = 28)): −1.39 (±2.90),
- MFSI-SF Physical fatigue, change, Mean (±SD) ([3]; Day 29 (N = 28)): −0.50 (±4.43),
- MFSI-SF Total, change, Mean (±SD) ([3]; Day 29 (N = 28)): −6.32 (±12.41),
- MFSI-SF Vigor, change, Mean (±SD) ([3]; Day 29 (N = 28)): 0.39 (±3.46),
- MFSI-SF Emotional fatigue, change, Mean (±SD) ([3]; Day 43 (N = 28)): 1.04 (±4.36),
- MFSI-SF Mental fatigue, change, Mean (±SD) ([3]; Day 43 (N = 28)): −0.36 (±4.12),
- MFSI-SF Physical fatigue, change, Mean (±SD) ([3]; Day 43 (N = 28)): −0.39 (±5.03),
- MFSI-SF Total, change, Mean (±SD) ([3]; Day 43 (N = 28)): −2.07 (±17.59),
- MFSI-SF Vigor, change, Mean (±SD) ([3]; Day 43 (N = 28)): −1.11 (±5.28),
- MFSI-SF Emotional fatigue, change, Mean (±SD) ([3]; Day 86 (N = 8)): −0.88 (±2.42),
- MFSI-SF General fatigue, change, Mean (±SD) ([3]; Day 86 (N = 8)): −4.00 (±6.28),
